Reference: patent US12037458B2, “Process and premix for incorporating optical brighteners into a polymeric composition” (Elkem Silicones USA Corp., priority 2019, dated 2024)

Key:
[1] = Solubility of Tinopal OB CO in different silanes / titanate (room-temperature mixing, black light inspection); details: for Forms a clear solution? / Amount of undissolved Tinopal ® OB CO: 0.072 g Tinopal OB CO in 10 g of compound; for Forms a clear solution?: mixed at room temperature, stored overnight; for Amount of undissolved Tinopal ® OB CO: room temperature; for # of particles observed: OBA particles, naked eye under black light; for Brightness: drop of mixture between glass plates under black light; for Solubility of Tinopal OB CO in the compound (in words): summary of Table 2
[2] = Saturation of optical brightener in GLYMO; assay type: physicochemical
Experimental: To determine the saturation level of optical brightener in GLYMO, increasing amounts of Tinopal® OB CO were mixed with GLYMO (0.25%, 0.5%, 1.0%, 2.0%, 3.0% Tinopal® OB CO), heated at 50° C. for one hour and then cooled while mixing.

[3] = Solubility of different optical brighteners in GLYMO, RT mixing (MM1)
[4] = Solubility of different optical brighteners in GLYMO, heated mixing (MM2); assay type: physicochemical; details: for # of particles observed MM2 / Amount of undissolved OBA MM2 / Brightness MM2 / Form a clear solution? Mixing Method 2: in GLYMO; for # of particles observed MM2 / Amount of undissolved OBA MM2 / Brightness MM2: heated mixing 50° C. (MM2); for Form a clear solution? Mixing Method 2: heated mixing 50° C. under nitrogen (MM2)
[5] = heated at 50° C. for one hour, cooled while mixing

# of particles observed MM2 [4] | Brightness MM2 [4] | Form a clear solution? Mixing Method 2 [4] | SMILES | Forms a clear solution? [1] | Amount of undissolved Tinopal ® OB CO [1] | # of particles observed [1] | Brightness [1] | Solubility of Tinopal OB CO in the compound (in words) [1] | Amount of undissolved OBA MM1 ([3]; in GLYMO, RT mixing (MM1)) | Amount of undissolved optical brightener ([3]; in GLYMO, room temperature) | Amount of undissolved OBA MM2 [4] | further results
 |  |  | C=C(C)C(=O)OCCC[Si](OC)(OC)OC [MEMO] | Yes | zero | 0 | high | relatively good solubility |  |  |  | 
zero | high | Yes | CC(C)(C)c1ccc2oc(-c3ccc(-c4nc5cc(C(C)(C)C)ccc5o4)s3)nc2c1 [Tinopal ® OB CO] |  |  |  |  |  | low | low | Zero | Concentration in GLYMO at which homogenously distributed [2, 5]: less than 1.0%; Concentration in GLYMO at which visible particles (agglomerates) were present [2, 5]: ≥ 1.0%; Average particle size of visible particles (agglomerates) ([2]; in GLYMO at concentrations of 1.0% or greater): ≥ 50 μm; Effect of heating (MM2) on solubility in GLYMO ([4]; MM2 versus MM1): improved the solubility; Amount of undissolved OBA MM2 ([4]; listed as Tinopal® OB CO): no undissolved particles
>100 | low | no | O=S(=O)(O)c1ccccc1C=Cc1ccc(-c2ccc(C=Cc3ccccc3S(=O)(=O)O)cc2)cc1 [Benetex ® OB-M1, benzenesulfonic acid, 2,2′-([1,1′-biphenyl]-4,4′-diyldi-2,1-ethenediyl)bis-] |  |  |  |  |  |  |  |  | 
 |  |  | C=C[Si](OC)(OC)OC [VTMO, vinyltrimethoxysilane] | Yes | low | 0 | high | relatively good solubility |  |  |  | 
>300 | high | no | C(=Cc1ccc(-c2nc3ccccc3o2)cc1)c1ccc(-c2nc3ccccc3o2)cc1 [Benetex ® OB-1 HP, benzoxazole, 2,2′-(1,2-ethenediyldi-4,1-phenylene)bis-] |  |  |  |  |  |  |  |  | 

SMILES | # of particles observed MM2 [4] | Brightness MM2 [4] | Form a clear solution? Mixing Method 2 [4] | Forms a clear solution? [1] | Amount of undissolved Tinopal ® OB CO [1] | # of particles observed [1] | Brightness [1] | Solubility of Tinopal OB CO in the compound (in words) [1] | Amount of undissolved OBA MM1 ([3]; in GLYMO, RT mixing (MM1)) | Amount of undissolved optical brightener ([3]; in GLYMO, room temperature) | Amount of undissolved OBA MM2 [4] | further results
CCN(CC)c1nc(Nc2ccc(C=Cc3ccc(Nc4nc(Nc5cc(S(=O)(=O)[O-])ccc5S(=O)(=O)[O-])nc(N(CC)CC)n4)cc3S(=O)(=O)[O-])c(S(=O)(=O)[O-])c2)nc(Nc2cc(S(=O)(=O)[O-])ccc2S(=O)(=O)[O-])n1.[Na+].[Na+].[Na+].[Na+].[Na+].[Na+] [Tinopal ® SFP] | 10-20 | low | No |  |  |  |  |  | high | high | Low | Forms a clear solution? ([3]; 0.072 g optical brightener in 10 g GLYMO, room temperature): No; # of particles observed MM1 ([3]; in GLYMO, RT mixing (MM1)): >300; Brightness MM1 ([3]; in GLYMO, RT mixing (MM1)): low; Form a clear solution? Mixing Method 1 ([3]; in GLYMO, RT mixing (MM1)): no; # of particles observed ([3]; in GLYMO, naked eye under black light): >300; Brightness ([3]; in GLYMO, under black light): low
